Measured values: patent US9533977B2, “Oxazolidinone derivative as CETP inhibitor, its preparation method, and pharmaceutical composition comprising the same” (DONG-A ST CO., LTD., priority 2013, dated 2017)
pIC50: −log10 of the molar value.

Target: T1, CETP (Homo sapiens, UniProt P11597)
T1 construct: from tissue; host or cells: human plasma from healthy men
T1 sequence (P11597 18-493): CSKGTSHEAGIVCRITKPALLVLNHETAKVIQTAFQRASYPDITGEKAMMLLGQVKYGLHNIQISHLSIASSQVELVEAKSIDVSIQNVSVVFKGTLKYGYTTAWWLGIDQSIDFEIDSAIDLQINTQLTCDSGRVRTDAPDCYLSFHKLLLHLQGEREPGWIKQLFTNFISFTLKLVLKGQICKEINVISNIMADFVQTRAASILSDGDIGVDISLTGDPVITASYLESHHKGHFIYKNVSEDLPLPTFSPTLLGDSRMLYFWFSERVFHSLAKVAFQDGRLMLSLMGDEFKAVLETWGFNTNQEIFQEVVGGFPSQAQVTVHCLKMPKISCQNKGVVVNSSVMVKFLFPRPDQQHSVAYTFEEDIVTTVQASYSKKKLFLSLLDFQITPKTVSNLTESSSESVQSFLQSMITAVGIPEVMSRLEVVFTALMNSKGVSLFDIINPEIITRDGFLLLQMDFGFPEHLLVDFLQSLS
Experiment: Inhibitory activity against CETP in human plasma (Roar CETP activity kit, fluorescence)
Assay type: biochemical
Details: plasma from healthy men diluted 1:10 in assay buffer, 37° C., 3 hrs, fluorescence 465/535 nm; read-out: IC50, Inhibition of CETP Activity in Human Plasma
Description: A CETP activity kit (#RB-CETP) was purchased from Roar […], Inc. A donor and an acceptor (each, 4 ul), a 10× assay buffer (177 ul), and each of dilutions of test compounds in dimethylsulfoxide (DMSO, Sigma-Aldrich) (0.01 nM˜10000 nM) were added to each well of black round-bottom 96-well plates (Corning #3792). Plasma samples from healthy men were diluted in the assay buffer (1:10=plasma:assay buffer), and added to each well. The plates were sealed with a sealing film (Sigma-Aldrich, #Z369659), and incubated in a 37° C. incubator microplate shaker (#SLST-3, Seolin Bio) for 3 hrs. After removal of the sealing film, fluorescence was read on Spectra Max Gemini EM (Molecular devices) with an excitation wavelength of 465 nm and an emission wavelength of 535 nm. Measurements were calculated according to the following formula. Calculated value=(Fluorescence Intensity with both compound and plasma−Fluorescence Intensity with compound but without plasma)/(Fluorescence Intensity with plasma but without compound−Fluorescence Intensity with neither compound nor plasma)
From the calculated value, a sigmoidal curve (y=start+(end-start)x^n/k^n+x^n) was drawn using Origin Software (OriginLab Corporation, ver. 8.0724) to obtain IC50 values.

Row | pIC50 | Molecule
1 | 8.41 | CCN(C[C@H]1CC[C@H](CC(=O)O)CC1)c1ncc(C2CC2)nc1CN1C(=O)OC(c2cc(C(F)(F)F)cc(C(F)(F)F)c2)[C@@H]1C (stereo partly drawn) [Example 121]
2 | 7.71 | CCN(c1ncc(C(F)(F)F)cc1CN1C(=O)O[C@H](c2cc(C(F)(F)F)cc(C(F)(F)F)c2)[C@@H]1C)C1CCN(CC(=O)OC)CC1 [Example 38, methyl 2-(4-{[3-({(4S,5R)-5-[3,5-bis(trifluoromethyl)phenyl]-4-methyl-2-oxo-oxazolidin-3-yl}methyl)-5-(trifluoromethyl)pyridin-2-yl](ethyl)amino}piperidin-1-yl)acetate]
3 | 7.52 | CCN(CC1CCC(CC(=O)O)CC1)c1ncc(-c2ccnn2C)nc1CN1C(=O)OC(c2cc(C(F)(F)F)cc(C(F)(F)F)c2)C1C [Example 106, trans-4-({[3-({(4S,5S)-5-[3,5-bis(trifluoromethyl)phenyl]-4-methyl-2-oxazolidin-3-yl}methyl)-5-(1-methyl-1H-pyrazol-5-yl)pyrazin-2-yl]{[N-(ethyl)aminomethyl]cyclohexyl)}acetic acid]
4 | 6.95 | C[C@H]1[C@@H](c2cc(C(F)(F)F)cc(C(F)(F)F)c2)OC(=O)N1Cc1cc(C(F)(F)F)cnc1N(C)C1CCOC1 (stereo partly drawn) [Example 1, (4S,5R)-5-[3,5-bis(trifluoromethyl)phenyl]-4-methyl-3-[(2-(methyl(tetrahydrofuran-3-yl)amino)-5-(trifluoromethyl)pyridin-3-yl)methyl]-oxazolidin-2-one]
5 | 7.32 | CCN(c1ncc(N2CCCC2C(F)(F)F)cc1CN1C(=O)O[C@H](c2cc(C(F)(F)F)cc(C(F)(F)F)c2)[C@@H]1C)C1CCCCC1 (stereo partly drawn) [Example 92, (4S,5R)-5-[3,5-bis(trifluoromethyl)phenyl]-4-methyl-3-({[2-(ethyl)(cyclohexyl)amino]-5-(2-(trifluoromethyl)-pyrrolidin-1-yl)pyridin-3-yl}methyl)-oxazolidin-2-one]
6 | 7.72 | CCN(c1ncc(-c2cc(C)cs2)cc1CN1C(=O)O[C@H](c2cc(C(F)(F)F)cc(C(F)(F)F)c2)[C@@H]1C)C1CCCCC1 [Example 63, (4S,5R)-5-[3,5-bis(trifluoromethyl)phenyl]-4-methyl-3-({[2-(ethyl)(cyclohexyl)amino]-5-(3-methyl-thiophen-5-yl)pyridin-3-yl}methyl)-oxazolidin-2-one]
7 | 8.42 | CCN(C[C@H]1CC[C@H](CC(=O)O)CC1)c1ncc(-c2cccn2C)nc1CN1C(=O)OC(c2cc(C(F)(F)F)cc(C(F)(F)F)c2)[C@@H]1C (stereo partly drawn) [Example 104]
8 | 7.20 | CCOC(=O)c1c(C)noc1-c1cnc(N(CC)C2CCCCC2)c(CN2C(=O)O[C@H](c3cc(C(F)(F)F)cc(C(F)(F)F)c3)[C@@H]2C)c1 [Example 74]
9 | 7.95 | CCN(c1ncc(OS(C)(=O)=O)cc1CN1C(=O)O[C@H](c2cc(C(F)(F)F)cc(C(F)(F)F)c2)[C@@H]1C)C1CCCCC1 [Example 55, 5-{[(4S,5R)-5-[3,5-bis(trifluoromethyl)phenyl]-4-methyl-2-oxo-oxazolidin-3-yl]methyl}-6-[(cyclohexyl)(ethyl)amino]-pyridin-3-yl methanesulfonate]
10 | 7.04 | C[C@H]1[C@@H](c2cc(C(F)(F)F)cc(C(F)(F)F)c2)OC(=O)N1Cc1cc(C(F)(F)F)cnc1N(CCO)C1CCOCC1 [Example 18, (4S,5R)-5-[3,5-Bis(trifluoromethyl)phenyl]-4-methyl-3-({[2-(hydroxyethyl)(tetrahydro-2H-pyran-4-yl)amino]-5-(trifluoromethyl)pyridin-3-yl}methyl)-oxazolidin-2-one]
11 | 7.58 | CCN(c1ncc(-c2cscn2)cc1CN1C(=O)O[C@H](c2cc(C(F)(F)F)cc(C(F)(F)F)c2)[C@@H]1C)C1CCCCC1 [Example 81, (4S,5R)-5-[3,5-bis(trifluoromethyl)phenyl]-4-methyl-3-({[2-(ethyl)(cyclohexyl)amino]-5-(thiazol-4-yl)pyridin-3-yl}methyl)-oxazolidin-2-one]
12 | 7.55 | CCN(c1ncc(-c2cccc(C)c2)cc1CN1C(=O)O[C@H](c2cc(C(F)(F)F)cc(C(F)(F)F)c2)[C@@H]1C)C1CCOCC1 [Example 46, (4S,5R)-5-[3,5-bis(trifluoromethyl)phenyl]-4-methyl-3-({[2-(ethyl)(tetrahydro-2H-pyran-4-yl)amino]-5-(3-methylphenyl)pyridin-3-yl}methyl)-oxazolidin-2-one]
13 | 6.48 | CCN(c1ncc(-c2cn[nH]c2)cc1CN1C(=O)O[C@H](c2cc(C(F)(F)F)cc(C(F)(F)F)c2)[C@@H]1C)C1CCCCC1 [Example 68, (4S,5R)-5-[3,5-bis(trifluoromethyl)phenyl]-4-methyl-3-({[2-(ethyl)(cyclohexyl)amino]-5-(1H-pyrazol-4-yl)pyridin-3-yl}methyl)-oxazolidin-2-one]
14 | 7.47 | C[C@H]1C(c2cc(C(F)(F)F)cc(C(F)(F)F)c2)OC(=O)N1Cc1nc(C2CCCC2)cnc1N(C)C[C@H]1CC[C@H](CC(=O)O)CC1 (stereo partly drawn) [Example 129]
15 | 7.13 | CCN(c1ncccc1CN1C(=O)O[C@H](c2cc(C(F)(F)F)cc(C(F)(F)F)c2)[C@@H]1C)C1CCOCC1 [Example 52, (4S,5R)-5-[3,5-bis(trifluoromethyl)phenyl]-4-methyl-3-({[2-(ethyl)(tetrahydro-2H-pyran-4-yl)amino]-pyridin-3-yl}methyl)-oxazolidin-2-one]
16 | 7.08 | Cc1noc(C)c1-c1cnc(N2CC(C)OC(C)C2)c(CN2C(=O)O[C@@H](c3cc(C(F)(F)F)cc(C(F)(F)F)c3)[C@@H]2C)n1 (stereo partly drawn) [Example 99, (4S,5S)-5-[3,5-bis(trifluoromethyl)phenyl]-3-{[6-(3,5-dimethylisoxazol-4-yl)-3-(2,6-dimethylmorpholino)pyrazin-2-yl]methyl}-4-methyloxazolidin-2-one]
17 | 7.77 | Cc1noc(C)c1-c1cnc(N(C)C[C@H]2CC[C@H](CC(=O)O)CC2)c(CN2C(=O)OC(c3cc(C(F)(F)F)cc(C(F)(F)F)c3)[C@@H]2C)n1 (stereo partly drawn) [Example 126]
18 | 7.87 | (4S,5R)-5-[3,5-bis(trifluoromethyl)phenyl]-4-methyl-3-({[2-(ethyl)(cyclohexyl)amino]-5-(1,3-dimethyl-1H-pyrazol-4-yl)pyridin-3-yl}methyl)-oxazolidin-2-one [Example 69]
19 | 7.11 | CCN(C[C@H]1CC[C@H](CC(=O)O)CC1)c1ncc(-c2cccnc2)nc1CN1C(=O)OC(c2cc(C(F)(F)F)cc(C(F)(F)F)c2)[C@@H]1C (stereo partly drawn) [Example 119]
20 | 8.42 | CCN(C[C@H]1CC[C@H](CC(=O)O)CC1)c1ncc(-c2sccc2OC)nc1CN1C(=O)OC(c2cc(C(F)(F)F)cc(C(F)(F)F)c2)[C@@H]1C (stereo partly drawn) [Example 109]
21 | 8.51 | CCN(C[C@H]1CC[C@H](CC(=O)O)CC1)c1ncc(-c2sccc2C)nc1CN1C(=O)OC(c2cc(C(F)(F)F)cc(C(F)(F)F)c2)[C@@H]1C (stereo partly drawn) [Example 111]
22 | 7.61 | CCN(c1ncc(-c2ccc(C)s2)cc1CN1C(=O)O[C@H](c2cc(C(F)(F)F)cc(C(F)(F)F)c2)[C@@H]1C)C1CCCCC1 [Example 79, (4S,5R)-5-[3,5-bis(trifluoromethyl)phenyl]-4-methyl-3-({[2-(ethyl)(cyclohexyl)amino]-5-(2-methyl-thiophen-5-yl)pyridin-3-yl}methyl)-oxazolidin-2-one]
23 | 7.90 | CCN(c1ncc(-c2c(C)noc2C)cc1CN1C(=O)O[C@H](c2cc(C(F)(F)F)cc(C(F)(F)F)c2)[C@@H]1C)C1CCOCC1 [Example 51]
24 | 7.93 | CCC1CCCN1c1cnc(N(CC)C2CCCCC2)c(CN2C(=O)O[C@H](c3cc(C(F)(F)F)cc(C(F)(F)F)c3)[C@@H]2C)c1 (stereo partly drawn) [Example 90, (4S,5R)-5-[3,5-bis(trifluoromethyl)phenyl]-4-methyl-3-({[2-(ethyl)(cyclohexyl)amino]-5-(2-ethyl-pyrrolidin-1-yl)pyridin-3-yl}methyl)-oxazolidin-2-one]
25 | 8.00 | (4S,5R)-5-[3,5-bis(trifluoromethyl)phenyl]-4-methyl-3-({[2-(ethyl)(cyclohexyl)amino]-5-(3-methoxy-thiophen-2-yl)pyridin-3-yl}methyl)-oxazolidin-2-one [Example 70]
26 | 7.70 | CCN(c1ncc(C(F)(F)F)cc1CN1C(=O)O[C@H](c2cc(C(F)(F)F)cc(C(F)(F)F)c2)[C@@H]1C)C1CCN(C(=O)OC)CC1 [Example 35, methyl 4-{[3-({(4S,5R)-5-[3,5-bis(trifluoromethyl)phenyl]-4-methyl-2-oxo-oxazolidin-3-yl}methyl)-5-(trifluoromethyl)pyridin-2-yl](ethyl)amino}piperidine-1-carboxylate]

Row | Molecule | pIC50
27 | (4S,5S)-5-[3,5-bis(trifluoromethyl)phenyl]-4-methyl-3-({[2-(methyl)(tetrahydro-2H-pyran-4-yl)amino]-5-(trifluoromethyl)pyridin-3-yl}methyl)-oxazolidin-2-one [Example 6] | 7.31
